The source of these data is ChEMBL document CHEMBL1156245, “Structure-activity relationships for substrate-based inhibitors of human complement factor B” (J Med Chem, 2009).

Peptide text beside a SMILES is read from it.

Series [1] is described as follows: Inhibition of cobra C3/C5 convertase assessed as inhibition of C3a and C5a fragment formation. The arrangement: species or system Naja naja.
The target in series [2] is T1, Complement factor B (Homo sapiens, UniProt P00751). The experiment in a line: Inhibition of human complement factor B treated for 5 mins before addition of substrate Ac-SHLGLAR-pNA at pH 9.5 by chromogenic assay.
T1 sequence (P00751 whole entry, the tested form may be a part): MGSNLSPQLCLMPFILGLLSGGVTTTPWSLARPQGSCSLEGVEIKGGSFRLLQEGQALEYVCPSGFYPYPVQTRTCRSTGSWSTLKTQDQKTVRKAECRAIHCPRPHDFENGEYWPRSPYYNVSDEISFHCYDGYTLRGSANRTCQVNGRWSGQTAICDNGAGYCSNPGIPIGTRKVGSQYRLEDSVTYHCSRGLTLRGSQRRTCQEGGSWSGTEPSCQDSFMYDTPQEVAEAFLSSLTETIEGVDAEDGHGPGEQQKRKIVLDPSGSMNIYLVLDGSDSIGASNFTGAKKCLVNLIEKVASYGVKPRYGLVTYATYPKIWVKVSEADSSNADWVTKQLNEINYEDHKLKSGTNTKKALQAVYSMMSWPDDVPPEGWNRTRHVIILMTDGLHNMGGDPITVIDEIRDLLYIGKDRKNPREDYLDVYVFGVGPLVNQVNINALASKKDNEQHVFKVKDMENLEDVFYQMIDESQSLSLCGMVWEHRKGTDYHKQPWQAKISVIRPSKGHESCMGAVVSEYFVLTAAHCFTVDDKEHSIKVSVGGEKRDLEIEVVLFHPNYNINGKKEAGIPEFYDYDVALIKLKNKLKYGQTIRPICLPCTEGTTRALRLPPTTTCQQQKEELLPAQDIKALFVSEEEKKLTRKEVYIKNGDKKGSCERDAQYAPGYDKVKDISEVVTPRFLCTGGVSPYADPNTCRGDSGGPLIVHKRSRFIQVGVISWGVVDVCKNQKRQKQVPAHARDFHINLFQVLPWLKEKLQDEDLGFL
Series [3] addresses T1, Complement factor B. The experiment in a line: Inhibition of human C3 convertase assessed as inhibition of C3a and C3b fragment production at pH 7.4 after 30 mins by SDS-PAGE using 7% (w/v) polyacrylamide gel.
Series [4] deals with T1, Complement factor B. The experiment in a line: Inhibition of human C3 convertase assessed as inhibition of C3a and C3b fragment production at pH 7.4 after 30 mins by SDS-PAGE.
Series [5] can be described thus: Inhibition of human alternative complement system-mediated membrane attack complex formation by ELISA.
The nature of series [6]: Inhibition of alternative complement system-mediated hemolysis of rabbit erythrocytes assessed as haemoglobin release after 30 mins by UV/vis spectrophotometry. Further details: species or system Oryctolagus cuniculus.
The target in series [7] is T1, Complement factor B. The experiment in a line: Inhibition of human complement factor B at pH 9.5 by chromogenic assay.
Series [8] has as its target T1, Complement factor B. The experiment in a line: Inhibition of human C3/C5 convertase assessed as inhibition of C3 cleavage.
A short description of series [9]: Solubility in water. It counts as physicochemical. The conditions noted are these: buffer.
The nature of series [10]: Metabolic stability in human serum assessed as compound remaining at 1 mM after 3 hrs by LC-MS analysis. Conditions: read-out: Stability. Format: ADME, cell-free.

Take `N=C(N)Nc1ccc(C(=O)Oc2ccc3cc(C(=N)N)ccc3c2)cc1`: the IC50 in [1] worked out at 4 µM.

Take `CC(=O)N[C@@H](CC(C)C)C(=O)N[C@@H](CC(C)C)C(=O)N[C@@H](C)C(=O)N[C@@H](CCCN=C(N)N)C(=O)O` (Ac-LLAR-OH): the half-maximal inhibitory concentration (IC50) against Complement factor B [2] is 12 µM. `CC(C)C[C@H](NC(=O)[C@H](CCC1CCCCC1)NC(=O)[C@H](CC(C)C)NC(=O)[C@H](Cc1cnc[nH]1)NC(=O)[C@@H](N)CO)C(=O)N[C@@H](C)C(=O)N[C@@H](CCCN=C(N)N)C(=O)O` (HELM PEPTIDE1{S.H.L.[O=C([C@H](CCC1CCCCC1)N[*:1])[*:2]].L.A.R}$$$$V2.0): inhibition against Complement factor B [2] was half-maximal at 5 µM (IC50). In the case of `CC(=O)N[C@@H](CCCNC(=N)N)C(=O)N[C@@H](CC(C)C)C(=O)N[C@@H](CC(C)(C)C)C(=O)N[C@@H](CC(C)C)C(=O)N[C@@H](C)C(=O)N[C@@H](CCCNC(=N)N)C(=O)O` (HELM PEPTIDE1{[ac].R.L.[CC(C)(C)C[C@H](N[*:1])C(=O)[*:2]].L.A.R}$$$$V2.0), the IC50 amounted to 0.25 µM against Complement factor B [2], 10 µM at Complement factor B [4], 0.32 µM in series [5] and 9.7 µM in series [6]. Moreover, on Complement factor B [3], the inhibition result is “Dose-dependent effect”. On Complement factor B [7], `CC(=O)N[C@@H](CO)C(=O)N[C@@H](Cc1cnc[nH]1)C(=O)N[C@@H](CC(C)C)C(=O)NCC(=O)N[C@@H](CC(C)C)C(=O)N[C@@H](C)C(=O)N[C@@H](CCCN=C(N)N)C(=O)Nc1ccc([N+](=O)[O-])cc1` (HELM PEPTIDE1{[ac].S.H.L.G.L.A.R.[O=[N+]([O-])c1ccc(N[*:1])cc1]}$$$$V2.0) yielded an IC50 of 19 µM. On Complement factor B [2], `CCCC[C@H](NC(=O)[C@H](Cc1cnc[nH]1)NC(=O)[C@H](CO)NC(C)=O)C(=O)N[C@@H](CC(C)C)C(=O)N[C@@H](CC(C)C)C(=O)N[C@@H](C)C(=O)N[C@@H](CCCNC(=N)N)C(=O)O` (HELM PEPTIDE1{[ac].S.H.[Nle].L.L.A.R}$$$$V2.0) registered an IC50 of 5 µM. Take `CC(=O)N[C@@H](Cc1ccc(F)cc1)C(=O)N[C@@H](Cc1cnc[nH]1)C(=O)N[C@@H](CC(C)C)C(=O)NCC(=O)N[C@@H](CC(C)C)C(=O)N[C@@H](C)C(=O)N[C@@H](CCCN=C(N)N)C(=O)O` (HELM PEPTIDE1{[ac].[O=C([C@H](Cc1ccc(F)cc1)N[*:1])[*:2]].H.L.G.L.A.R}$$$$V2.0): on Complement factor B [2], the IC50 amounted to 13 µM. Consider `CC[C@H](C)[C@H](N)C(=O)N[C@H]1CSSC[C@@H](C(=O)N[C@H](C(N)=O)[C@@H](C)O)NC(=O)[C@H](CCCN=C(N)N)NC(=O)[C@H](Cc2cnc[nH]2)NC(=O)[C@H](Cc2cnc[nH]2)NC(=O)CNC(=O)[C@H](Cc2c[nH]c3ccccc23)NC(=O)[C@H](CC(=O)O)NC(=O)[C@H](CCC(N)=O)NC(=O)[C@H](C(C)C)NC(=O)[C@H](C(C)C)NC1=O` [COMPSTATIN], for which the IC50 at Complement factor B [8] came to 12 µM. As for Ac-FHLGLAR-OH, it took 23 µM to reach half-maximal inhibition against Complement factor B [2] (IC50). The compound Ac-HLLLAR-OH returned an IC50 on Complement factor B [2] of 3 µM. Still for that read-out and setting: the result for Ac-LLLAR-OH reads 3 µM. For Ac-RLLLAR-OH [listing 1 of 2 here], in series [9], the solubility entry was “Soluble”. Also, the results for the IC50 on Complement factor B [2] and on Complement factor B [4] were 0.6 µM and 50 µM, respectively. In series [10], the remaining at 3 h, 1000 µM came to 80%. For the compound Ac-RLLLAR-OH [listing 2 of 2 here], the inhibition entry at Complement factor B [3] was “Dose-dependent effect”. The IC50 in [5] is 1 µM; in series [6], 20.8 µM. Regarding Ac-RLLLGR-OH, it took 7 µM to reach half-maximal inhibition at Complement factor B [2] (IC50). As for Ac-SHLGLAR-OH, the IC50 on Complement factor B [2] came out at 19 µM; in [5] it was 21.1 µM; in [6] it was 243 µM. Moreover, the remaining at 3 h, 1000 µM in series [10] is 80%. In the case of Ac-SHLLLAR-OH, 4 µM corresponded to half-maximal inhibition against Complement factor B [2] (IC50).

Broadly, the IC50 is the concentration needed to halve the response being measured.
